Laboratory results: patent US20250223268A1, “4-Methylsulfonylbenzamide Compound, Preparation Method, Herbicidal Composition And Use” (Jiangsu Flag Chemical Industry Co., Ltd., priority 2022, published 2025)

Columns and labels:
Assay in all cases: Greenhouse herbicidal activity assay, post-emergence
Assay type in all cases: in vivo
Cyperus iria = conditions: Post-emergence test, rate 150 g a.i./hm^2, grade by fresh weight inhibition rate; for pest or weed control at 150 g/ha: Cyperus iria, read-out: Control efficacy grade, Cyperus iria
Method in brief: (§1)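 Graded A (≥80%) to E (<20%) by fresh weight inhibition, read 14-21 days after spraying. Plants were pot-grown in a growth chamber and received foliar application at the 3-6 leaf stage, being air-dried and returned to the chamber afterwards.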

Digitaria sanguinalis = conditions: Post-emergence test, rate 150 g a.i./hm^2, grade by fresh weight inhibition rate; for pest or weed control at 150 g/ha: Digitaria sanguinalis, read-out: Control efficacy grade, Digitaria sanguinalis
Method in brief: as §1

Echinochloa crusgalli = conditions: Post-emergence test, rate 150 g a.i./hm^2, grade by fresh weight inhibition rate; for pest or weed control at 150 g/ha: Echinochloa crus-galli, read-out: Control efficacy grade, Echinochloa crusgalli
Method in brief: as §1

Eclipta prostrata = conditions: Post-emergence test, rate 150 g a.i./hm^2, grade by fresh weight inhibition rate; for pest or weed control at 150 g/ha: Eclipta prostrata, read-out: Control efficacy grade, Eclipta prostrata
Method in brief: as §1

Leptochloa chinensis = conditions: Post-emergence test, rate 150 g a.i./hm^2, grade by fresh weight inhibition rate; for pest or weed control at 150 g/ha: Dinebra chinensis, read-out: Control efficacy grade, Leptochloa chinensis
Method in brief: as §1

| SMILES | Control efficacy grade, Cyperus iria (Cyperus iria) | Control efficacy grade, Digitaria sanguinalis (Digitaria sanguinalis) | Control efficacy grade, Echinochloa crusgalli (Echinochloa crusgalli) | Control efficacy grade, Eclipta prostrata (Eclipta prostrata) | Control efficacy grade, Leptochloa chinensis (Leptochloa chinensis) | pest or weed control at 150 g/ha (Cyperus iria) | pest or weed control at 150 g/ha (Digitaria sanguinalis) | pest or weed control at 150 g/ha (Echinochloa crusgalli) | pest or weed control at 150 g/ha (Eclipta prostrata) | pest or weed control at 150 g/ha (Leptochloa chinensis) |
| --- | --- | --- | --- | --- | --- | --- | --- | --- | --- | --- |
| CCCS(=O)(=O)c1c(S(C)(=O)=O)ccc(C(=O)Nc2ncnn2C)c1Cl [Compound 2-5] | A (Fresh weight inhibition rate≥80% to 100%) | B (Fresh weight inhibition rate≥260% to <80%) | B (Fresh weight inhibition rate≥260% to <80%) | A (Fresh weight inhibition rate≥80% to 100%) | A (Fresh weight inhibition rate≥80% to 100%) |  |  |  |  |  |
| CC(C)Sc1c(S(C)(=O)=O)ccc(C(=O)Nc2ncnn2C)c1Cl [Compound 2-6, 2-chloro-3-(isopropylthio)-N-(1-methyl-1H-1,2,4-triazol-5-yl)-4-(methylsulfonyl)benzamide] |  |  |  |  |  | 80 to 100% | 80 to 260% | 80 to 100% | 80 to 100% | 80 to 100% |
| Cn1ncnc1NC(=O)c1ccc(S(C)(=O)=O)c(SCC2CC2)c1Cl [Compound 2-27] | A (Fresh weight inhibition rate≥80% to 100%) | A (Fresh weight inhibition rate≥80% to 100%) | A (Fresh weight inhibition rate≥80% to 100%) | A (Fresh weight inhibition rate≥80% to 100%) | A (Fresh weight inhibition rate≥80% to 100%) |  |  |  |  |  |
| Cn1ncnc1NC(=O)c1ccc(S(C)(=O)=O)c(SC2CCC2)c1Cl [Compound 2-37] | A (Fresh weight inhibition rate≥80% to 100%) | B (Fresh weight inhibition rate≥260% to <80%) | A (Fresh weight inhibition rate≥80% to 100%) | A (Fresh weight inhibition rate≥80% to 100%) | A (Fresh weight inhibition rate≥80% to 100%) |  |  |  |  |  |
| C=CCSc1c(S(C)(=O)=O)ccc(C(=O)Nc2ncnn2C)c1Cl [Compound 2-67] | A (Fresh weight inhibition rate≥80% to 100%) | B (Fresh weight inhibition rate≥260% to <80%) | B (Fresh weight inhibition rate≥260% to <80%) | A (Fresh weight inhibition rate≥80% to 100%) | B (Fresh weight inhibition rate≥260% to <80%) |  |  |  |  |  |
| C=CCS(=O)(=O)c1c(S(C)(=O)=O)ccc(C(=O)Nc2ncnn2C)c1Cl [Compound 2-71] | A (Fresh weight inhibition rate≥80% to 100%) | A (Fresh weight inhibition rate≥80% to 100%) | A (Fresh weight inhibition rate≥80% to 100%) | A (Fresh weight inhibition rate≥80% to 100%) | A (Fresh weight inhibition rate≥80% to 100%) |  |  |  |  |  |
| CCCSc1c(S(C)(=O)=O)ccc(C(=O)Nc2nnc(C)o2)c1Cl [Compound 3-1] | A (Fresh weight inhibition rate≥80% to 100%) | A (Fresh weight inhibition rate≥80% to 100%) | A (Fresh weight inhibition rate≥80% to 100%) | A (Fresh weight inhibition rate≥80% to 100%) | A (Fresh weight inhibition rate≥80% to 100%) |  |  |  |  |  |
| Cc1nnc(NC(=O)c2ccc(S(C)(=O)=O)c(SC(C)C)c2Cl)o1 [Compound 3-6, 2-chloro-3-(isopropylthio)-N-(5-methyl-1,3,4-oxadiazol-2-yl)-4-(methylsulfonyl)benzamide] |  |  |  |  |  | 80 to 100% | 80 to 100% | 80 to 100% | 80 to 100% | 80 to 100% |
| Cc1nnc(NC(=O)c2ccc(S(C)(=O)=O)c([S+]([O-])C(C)C)c2Cl)o1 (stereo not shown) [Compound 3-7, 2-chloro-3-(isopropylsulfinyl)-N-(5-methyl-1,3,4-oxadiazol-2-yl)-4-(methylsulfonyl)benzamide] |  |  |  |  |  | 80 to 100% | 80 to 100% | 80 to 100% | 80 to 100% | 80 to 100% |
| CCCCSc1c(S(C)(=O)=O)ccc(C(=O)Nc2nnc(C)o2)c1Cl [Compound 3-11] | A (Fresh weight inhibition rate≥80% to 100%) | A (Fresh weight inhibition rate≥80% to 100%) | B (Fresh weight inhibition rate≥260% to <80%) | A (Fresh weight inhibition rate≥80% to 100%) | A (Fresh weight inhibition rate≥80% to 100%) |  |  |  |  |  |
| Cc1nnc(NC(=O)c2ccc(S(C)(=O)=O)c(SCC(C)C)c2Cl)o1 [Compound 3-27] | A (Fresh weight inhibition rate≥80% to 100%) | A (Fresh weight inhibition rate≥80% to 100%) | A (Fresh weight inhibition rate≥80% to 100%) | A (Fresh weight inhibition rate≥80% to 100%) | A (Fresh weight inhibition rate≥80% to 100%) |  |  |  |  |  |
| Cc1nnc(NC(=O)c2ccc(S(C)(=O)=O)c(SCC3CC3)c2Cl)o1 [Compound 3-37] | A (Fresh weight inhibition rate≥80% to 100%) | A (Fresh weight inhibition rate≥80% to 100%) | A (Fresh weight inhibition rate≥80% to 100%) | A (Fresh weight inhibition rate≥80% to 100%) | A (Fresh weight inhibition rate≥80% to 100%) |  |  |  |  |  |
| Cc1nnc(NC(=O)c2ccc(S(C)(=O)=O)c(SCCC(C)C)c2Cl)o1 [Compound 3-52] | A (Fresh weight inhibition rate≥80% to 100%) | B (Fresh weight inhibition rate≥260% to <80%) | B (Fresh weight inhibition rate≥260% to <80%) | A (Fresh weight inhibition rate≥80% to 100%) | A (Fresh weight inhibition rate≥80% to 100%) |  |  |  |  |  |
| Cc1nnc(NC(=O)c2ccc(S(C)(=O)=O)c(SC3CC3)c2Cl)o1 [Compound 3-77] | A (Fresh weight inhibition rate≥80% to 100%) | A (Fresh weight inhibition rate≥80% to 100%) | A (Fresh weight inhibition rate≥80% to 100%) | A (Fresh weight inhibition rate≥80% to 100%) | A (Fresh weight inhibition rate≥80% to 100%) |  |  |  |  |  |
| Cc1nnc(NC(=O)c2ccc(S(C)(=O)=O)c(SC3CCC3)c2Cl)o1 [Compound 3-82] | A (Fresh weight inhibition rate≥80% to 100%) | A (Fresh weight inhibition rate≥80% to 100%) | A (Fresh weight inhibition rate≥80% to 100%) | A (Fresh weight inhibition rate≥80% to 100%) | A (Fresh weight inhibition rate≥80% to 100%) |  |  |  |  |  |
| Cc1nnc(NC(=O)c2ccc(S(C)(=O)=O)c(SC3CCCC3)c2Cl)o1 [Compound 3-87] | A (Fresh weight inhibition rate≥80% to 100%) | A (Fresh weight inhibition rate≥80% to 100%) | A (Fresh weight inhibition rate≥80% to 100%) | A (Fresh weight inhibition rate≥80% to 100%) | A (Fresh weight inhibition rate≥80% to 100%) |  |  |  |  |  |
| Cc1nnc(NC(=O)c2ccc(S(C)(=O)=O)c(SCC(F)(F)F)c2Cl)o1 [Compound 3-97] | A (Fresh weight inhibition rate≥80% to 100%) | A (Fresh weight inhibition rate≥80% to 100%) | A (Fresh weight inhibition rate≥80% to 100%) | A (Fresh weight inhibition rate≥80% to 100%) | A (Fresh weight inhibition rate≥80% to 100%) |  |  |  |  |  |
